Experimental data reported in patent US20110143992A1, “Methods and Compositions Related to GHS-R Antagonists” (priority 2006, published 2011).
[ ]: non-standard residue; d: D form.

Legend:
HIV1 (CXCR4, S1 strain) = experiment: HIV-1 infectivity of CEM-GFP indicator cells (GFP fluorescence); format: cell-based; details: 1 ug/ml pretreatment 30 min, 90 min viral incubation
Experimental: Neomycin-resistant indicator CEM-GFP cells were used to monitor the infections with HIV1 (CXCR4, S1 strain). Viral entry into CEM cells via CXCR4 results in generation of green fluorescent protein signal. CEM cells (1 million/ml) were pretreated with DLG (1 ug/ml) and SDF-1 (1 ug/ml) for 30 min followed by 90 min viral incubation.

U118 astrocytoma cells = experiment: SDF-1 induced ERK phosphorylation, Western blot, U118 cells; format: cell-based, human; details: DLG pretreatment 30 min
Experimental: (§1) Western blot analysis. Control and treated cells were lysed in RIPA buffer supplemented with protease and phosphatase inhibitor cocktail (Sigma-Aldrich, St. Louis, Mo.) and protein concentrations of cell lysates were determined by Bradford assay. Protein lysates (30 μg) were diluted with sample buffer and separated on 4-20% Tris HCl SDS-polyacrylamide gels (Biorad, Hercules, Calif.) and electrophoretically transferred to nitrocellulose membranes (Schleicher & Schuell). The blots were then incubated with rabbit anti-phospho-P42 and pERK (Cell Signaling, Beverly, Mass.). Immune complexes were visualized by incubation with either an anti-rabbit or an anti-mouse HRP-conjugated secondary antibody (Amersham, Piscataway, N.J.). The immunoreactive band was visualized by enhanced chemiluminescence (Perkin-Elmer).

CCR7 = molecular target: T1, CCR7 (Homo sapiens, UniProt P32248); experiment: MIP-3β induced calcium release in human T cells; format: cell-based
T1 construct: MIP-3β induced calcium release (A) and sphingosine 1 phosphate (B) is not affected by DLG treatment in human T cells; endogenous in cells; host or cells: human T cells
T1 sequence (P32248 25-378): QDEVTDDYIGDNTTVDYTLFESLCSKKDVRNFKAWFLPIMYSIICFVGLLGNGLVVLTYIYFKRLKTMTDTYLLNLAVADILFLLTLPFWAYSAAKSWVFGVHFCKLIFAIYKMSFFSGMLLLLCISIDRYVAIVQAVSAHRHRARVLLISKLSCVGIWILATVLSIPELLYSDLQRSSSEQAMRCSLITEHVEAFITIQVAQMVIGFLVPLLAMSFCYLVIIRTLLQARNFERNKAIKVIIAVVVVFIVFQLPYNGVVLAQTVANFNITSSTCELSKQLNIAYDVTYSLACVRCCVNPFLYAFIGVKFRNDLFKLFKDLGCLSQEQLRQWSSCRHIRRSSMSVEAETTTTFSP

[1] = tested on: CEMR5 human T cell lymphoma cell; experiment: Transwell chemotaxis assay, SDF-1 induced migration of CEMR5 cells; format: cell-based; details: SDF-1 100 ng/ml
Experimental: (§2) Chemotaxis Assay. Fluorescence-based Transwell chemotaxis assays were performed to assess cell migration. Primary human T cells, CEMR5 and HH cells were labeled with 10 μg/ml Hoechst 33342 (Molecular Probes) in cRPMI for 30 min at 37° C. The cells were then resuspended in RPMI with 1% FBS to a concentration of 1×10^7/ml and 100 ul of Hoechst labeled cells (10^6 cells) were added into the top chamber of the transwells. Cells were treated with DLG in the upper chamber and RPMI (0.6 ml) containing 1% FBS was added to the bottom wells of the 24-well plate with 100 ng/ml of SDF-1α. Transwell chambers with 5 μm pore filters (Corning CoStar, Acton, Mass.) were then placed into the wells. Cells (1×10^6 in 100 μl) were then added to the chambers. After 2 h, the migrated cells in the bottom wells were transferred to triplicate wells of a 96-well plate in 150 μl volumes. Hoechst fluorescence was measured on a Fluoroskan Ascent FL fluorescence plate reader (Thermo Labsystems, Franklin, Mass.) at λex=355 nm, and λem=460 nm. Results are expressed as migration index calculated by subtracting the fluorescence intensity of media alone and comparing the values to the fluorescence intensity (relative number) of cells migrated into the bottom chamber in media alone, which is normalized to a value of 1. Fluorescence values were within the linear range of a standard dilution curve.

CXCR4 [2] = molecular target: T2, CXCR4 (Homo sapiens, UniProt P61073); experiment: SDF-1 induced intracellular calcium mobilization (Fura-2AM) in primary human T cells; format: cell-based; parameters: endogenous in cells; host or cells: primary human T cells purified from donor PBMCs
T2 sequence (P61073 whole entry): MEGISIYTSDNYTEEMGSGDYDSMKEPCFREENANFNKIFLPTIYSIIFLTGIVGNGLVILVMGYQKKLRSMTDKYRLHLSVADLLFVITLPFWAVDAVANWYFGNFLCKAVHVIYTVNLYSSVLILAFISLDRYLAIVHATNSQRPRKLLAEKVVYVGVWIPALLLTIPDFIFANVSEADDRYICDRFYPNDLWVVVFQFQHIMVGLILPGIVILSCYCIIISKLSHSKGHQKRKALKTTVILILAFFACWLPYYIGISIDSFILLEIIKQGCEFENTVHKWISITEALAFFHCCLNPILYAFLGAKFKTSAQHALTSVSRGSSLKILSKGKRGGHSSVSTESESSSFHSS
Experimental: Intracellular calcium mobilization. Measurement of intracellular calcium release in response to ghrelin and SDF-1 was performed as described previously (Dixit et al. J. Clin. Invest. 114, 57-66 (2004)). Cells were incubated in PBS containing […] Fura-2 acetoxymethyl ester (Molecular Probes) for 30 minutes at room temperature. The cells were subsequently washed and then resuspended at 1×10^6/ml in PBS. A total of 2 ml of the cell suspension was placed in a continuously stirring cuvette at room temperature in an LS50B spectrophotometer (Perkin-Elmer, Wellesley, Mass., USA). Labeled T cells were treated with SDF-1 (100 ng/ml) and along with DLG (Sigma-Aldrich) at various concentrations. Fluorescence was monitored at λex1=340 nm, λex2=380 nm, and λcm=510 nm. The data are presented as the relative ratio of fluorescence excited at 340 and 380 nm.

Primary human T cells = experiment: Transwell chemotaxis assay, SDF-1 induced migration of primary human T cells; format: cell-based; details: SDF-1 100 ng/ml, 2 h
Experimental: as §2

SW1008 astrocytoma cells = experiment: SDF-1 induced ERK phosphorylation, Western blot, SW1008 cells; format: cell-based, human; details: DLG pretreatment 30 min
Experimental: as §1

CCR5 [3] = molecular target: T3, CCR5 (Homo sapiens, UniProt P51681); experiment: MIP-1β induced calcium release in CEM-R5 cells (Fura-2AM); format: cell-based; parameters: ATCC; host or cells: CEM-R5 cells; details: CEMR5 cells, MIP-1β 100 ng/ml
T3 sequence (P51681 whole entry): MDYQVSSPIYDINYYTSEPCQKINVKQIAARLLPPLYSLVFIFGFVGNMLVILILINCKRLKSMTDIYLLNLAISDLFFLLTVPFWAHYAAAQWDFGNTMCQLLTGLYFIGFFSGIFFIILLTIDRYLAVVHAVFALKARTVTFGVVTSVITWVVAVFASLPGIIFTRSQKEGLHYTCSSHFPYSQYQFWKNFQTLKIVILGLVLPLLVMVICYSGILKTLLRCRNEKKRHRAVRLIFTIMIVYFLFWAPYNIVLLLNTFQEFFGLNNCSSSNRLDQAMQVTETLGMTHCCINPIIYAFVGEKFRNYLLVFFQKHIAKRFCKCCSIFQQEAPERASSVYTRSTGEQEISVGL

[4] = cited from earlier work
EDG receptor = experiment: Sphingosine 1 phosphate induced calcium release in human T cells; format: cell-based
[5] = obese mice, cited from earlier work
primary brain tumors = details: via ERK dependent pathways; cited from earlier work
[6] = in vivo; cited from earlier work
[7] = tested on: breast and pancreatic carcinoma; details: cited from earlier work
HIV = details: cited from earlier work
glioma cell = details: cited from earlier work
CCR5 [8] = molecular target: T3, CCR5; experiment: flow cytometry, whole cell ligand binding on T-SUP1 cells; competitor biotinylated MIP-1β + avidin-FITC; DLG 10^-2 M for 15 minutes by the legend of FIG. 5
CXCR4 [9] = molecular target: T2, CXCR4; experiment: flow cytometry, whole cell ligand binding on T-SUP1 cells; competitor biotinylated SDF-1 + avidin-FITC; DLG 10^-2 M for 15 minutes by the legend of FIG. 5

## H-His-D-Trp-D-Lys-Trp-D-Phe-Lys-NH2 (H-H[dW][dK]W[dF]K-NH2; SMILES NCCCC[C@H](NC(=O)[C@@H](Cc1ccccc1)NC(=O)[C@H](Cc1c[nH]c2ccccc12)NC(=O)[C@@H](CCCCN)NC(=O)[C@@H](Cc1c[nH]c2ccccc12)NC(=O)[C@@H](N)Cc1c[nH]cn1)C(N)=O) [DLG, GHS-R antagonist peptide, obtained from Sigma-Aldrich]
HIV1 (CXCR4, S1 strain)
  HIV infectivity (GFP fluorescence intensity) compared to untreated cells: substantial reduction in HIV infectivity
U118 astrocytoma cells
  effect on SDF-1 induced ERK/P42 phosphorylation: abrogated the SDF-1 induced signaling
CCR7
  effect on MIP-3β mediated calcium flux: did not affect
[1]
  inhibition of SDF-1 induced migration: inhibited the migration
CXCR4 [2]; primary human T cells, SDF-1 100 ng/ml, DLG at various concentrations
  inhibition of SDF-1-induced calcium flux: markedly inhibited in a dose dependent fashion
CXCR4 [2]; unstimulated primary human T cells
  calcium flux by the substance alone: did not flux calcium by itself
Primary human T cells
  inhibition of SDF-1 induced T cell migration: marked dose dependent inhibition
SW1008 astrocytoma cells
  effect on SDF-1 induced ERK/P42 phosphorylation: abrogated the SDF-1 induced signaling
CCR5 [3]
  inhibition of calcium release post MIP-1β-CCR5 interaction: dose dependent inhibition of calcium release
[4]; fed state when circulating ghrelin levels are low
  food intake: does not affect food intake in the fed state
[4]; in vivo
  adverse side effects: without any adverse side effects
EDG receptor
  effect on sphingosine 1 phosphate mediated calcium flux: did not affect
[5]; repeated administration
  body weight: reduce body weight in obese mice
  glycaemic control and insulin resistance: improve their glycaemic control and insulin resistance
[5]
  muscle mass: without affecting the muscle mass
  size of abdominal fat pads: reduced the size of abdominal fat pads

## c1cc(CN2CCCNCCNCCCNCC2)ccc1CN1CCCNCCNCCCNCC1 [AMD3100]
Primary brain tumors
  intracranial growth of primary brain tumors: effectively inhibit intracranial growth of primary brain tumors
[6]
  allergy and collagen induced arthritis: decreases allergy and collagen induced arthritis
[7]
  metastasis of breast and pancreatic carcinoma: blocks
HIV
  CXCR4 mediated HIV viral entry: successfully utilized to block CXCR4 mediated HIV viral entry
Glioma cell
  glioma cell invasion: blocks glioma cell invasion

B1: D-[Lys3]GHRP-6 (H-His-D-Trp-D-Lys-Trp-D-Phe-Lys-NH2) (peptide)
peptide: H-H[dW][dK]W[dF]K-NH2
SMILES: NCCCC[C@H](NC(=O)[C@@H](Cc1ccccc1)NC(=O)[C@H](Cc1c[nH]c2ccccc12)NC(=O)[C@@H](CCCCN)NC(=O)[C@@H](Cc1c[nH]c2ccccc12)NC(=O)[C@@H](N)Cc1c[nH]cn1)C(N)=O
CCR5 [8]
  percent reduction of maximal binding: 50 to 60%
CXCR4 [9]
  percent reduction of maximal binding: 50 to 60%
